The target in this experiment is recombinant human AMCase (Homo sapiens, UniProt Q9BZP6). The experiment in a line: Human AMCase Activity Assay. Type of experiment: biochemical. The note with it: recombinant hAMCase, 4-methylumbelliferyl chitobioside substrate, citrate buffer pH 5.2, 37° C., 60 minutes; read-out: Activity (IC50 value key). Summed up:
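Recombinant human enzyme with fluorogenic 4-methylumbelliferyl β-D-N,N′-diacetylchitobioside substrate in citrate buffer, pH 5.2, 60 min at 37 °C in the dark with shaking. Read-out is 4MU fluorescence at 460 nm.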

Where a name gives a salt, the structure may show the parent alone. A value given as a limit tells only on which side of the number the result lay.

Chain of recombinant human AMCase (Q9BZP6 22-476): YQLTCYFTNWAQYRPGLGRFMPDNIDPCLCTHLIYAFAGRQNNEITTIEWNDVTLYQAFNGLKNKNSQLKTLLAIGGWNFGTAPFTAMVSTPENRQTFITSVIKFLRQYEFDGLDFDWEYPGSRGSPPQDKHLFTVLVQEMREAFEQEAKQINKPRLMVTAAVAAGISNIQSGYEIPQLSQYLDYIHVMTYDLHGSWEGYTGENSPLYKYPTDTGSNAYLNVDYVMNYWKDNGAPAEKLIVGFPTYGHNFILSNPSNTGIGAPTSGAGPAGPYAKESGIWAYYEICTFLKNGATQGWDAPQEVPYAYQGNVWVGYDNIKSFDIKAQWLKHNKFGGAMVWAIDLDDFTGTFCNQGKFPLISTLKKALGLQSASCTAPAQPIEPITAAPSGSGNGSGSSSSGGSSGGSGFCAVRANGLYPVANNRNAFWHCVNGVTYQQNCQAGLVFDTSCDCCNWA

In the case of `CC(=O)NC(CC(=O)N1CCN(c2nc(N)n[nH]2)CC1)c1cccc(F)c1` (centres unmarked) [Example 222, N-(3-(4-(3-amino-1H-1,2,4-triazol-5-yl)piperazin-1-yl)-1-(3-fluorophenyl)-3-oxopropyl)acetamide], the IC50 (commonly the point on the concentration scale where inhibition reaches its midpoint) is more than 100 µM.
The figure for `Nc1n[nH]c(N2CCN(CCCc3ccc(C(F)(F)F)cc3)C(CCCO)C2)n1` (centres unmarked) [Example 223, 3-(4-(3-amino-1H-1,2,4-triazol-5-yl)-1-(3-(4-(trifluoromethyl)phenyl)propyl)piperazin-2-yl)propan-1-ol] is 1 to 10 µM.
The same measure for `CC(=O)OCCCC1CN(c2nc(N)n[nH]2)CCN1CCCc1ccc(Br)cc1` (centres unmarked) [Example 224, 3-(4-(3-amino-1H-1,2,4-triazol-5-yl)-1-(3-(4-bromophenyl)propyl)piperazin-2-yl)propylacetate]: 0.1 to 1 µM.
The same measure for `Nc1n[nH]c(N2CCN(CCCc3ccc(Br)cc3)C(CCCO)C2)n1` (centres unmarked) [Example 225, 3-(4-(3-amino-1H-1,2,4-triazol-5-yl)-1-(3-(4-bromophenyl)propyl)piperazin-2-yl)propan-1-ol]: 1 to 10 µM; for `Nc1n[nH]c(N2CCN(CCCc3ccccc3)C(CCCO)C2)n1` (centres unmarked) [Example 226]: 10 to 100 µM; for `CN(CCc1ccc(Cl)cc1)C1(CCO)CCN(c2nc(N)n[nH]2)CC1` [Example 228, 2-(1-(3-amino-1H-1,2,4-triazol-5-yl)-4-((4-chlorophenethyl)(methyl)amino)piperidin-4-yl)ethanol]: 0.1 to 1 µM.
Turning to `CC(C)(O)CCC1CN(c2nc(N)n[nH]2)CCN1CCCc1ccc(Br)cc1` (centres unmarked) [Example 229, 4-(4-(3-amino-1H-1,2,4-triazol-5-yl)-1-(3-(4-bromophenyl)propyl)piperazin-2-yl)-2-methylbutan-2-ol], the IC50 fell in the range of 1 to 10 µM.
The same measure for `CC1CN(c2nc(N)n[nH]2)CCC1N(C)CCc1ccc(Br)cc1` (centres unmarked) [Example 230, 1-(3-amino-1H-1,2,4-triazol-5-yl)-N-(4-bromophenethyl)-N,3-dimethylpiperidin-4-amine dihydrochloride]: 0.1 to 1 µM.
The same measure for `CCC(Cc1ccc(Cl)cc1)N(CC)C1CCN(c2nc(N)n[nH]2)CC1` (centres unmarked) [Example 232, 1-(3-amino-1H-1,2,4-triazol-5-yl)-N-(1-(4-chlorophenyl)butan-2-yl)-N-ethylpiperidin-4-amine dihydrochloride]: 0.1 to 1 µM; for `Nc1n[nH]c(N2CCN(C(=O)CC(N)c3cccc(F)c3)CC2)n1` (centres unmarked) [Example 233, 3-amino-1-(4-(3-amino-1H-1,2,4-triazol-5-yl)piperazin-1-yl)-3-(3-fluorophenyl)propan-1-one]: more than 100 µM; for `CC1(C(=O)NCc2ccc(Cl)cc2)CCN(c2nc(N)n[nH]2)CC1` [Example 235, 1-(3-amino-1H-1,2,4-triazol-5-yl)-N-(4-chlorobenzyl)-4-methylpiperidine-4-carboxamide]: more than 100 µM.
The figure for `CC1(C(=O)NCc2ccc(Br)cc2)CCN(c2nc(N)n[nH]2)CC1` [Example 237, 1-(3-amino-1H-1,2,4-triazol-5-yl)-N-(4-bromobenzyl)-4-methylpiperidine-4-carboxamide] is more than 100 µM.
For the compound `CCN(C1CCN(c2nc(N)n[nH]2)CC1)S(=O)(=O)Cc1cccc(Cl)c1` [Example 238, N-(1-(3-amino-1H-1,2,4-triazol-5-yl)piperidin-4-yl)-1-(3-chlorophenyl)-N-ethylmethanesulfonamide], the IC50 was in the range of 0.1 to 1 µM.
The figure for `CN(C)C(Cc1ccc(Cl)cc1Cl)C(=O)N1CCN(c2nc(N)n[nH]2)CC1` (centres unmarked) [Example 240, 1-(4-(3-amino-1H-1,2,4-triazol-5-yl)piperazin-1-yl)-3-(2,4-dichlorophenyl)-2-(dimethylamino)propan-1-one] is more than 100 µM; for `C[C@H](CN1CCN(c2nc(N)n[nH]2)CC1)Oc1ccc(Cl)cc1` [Example 241, (R)-5-(4-(2-(4-chlorophenoxy)propyl)piperazin-1-yl)-1H-1,2,4-triazol-3-amine dihydrochloride] it is more than 100 µM; for `CN(C)C(CC(=O)N1CCN(c2nc(N)n[nH]2)CC1)c1ccccc1F` (centres unmarked) [Example 242, 1-(4-(3-amino-1H-1,2,4-triazol-5-yl)piperazin-1-yl)-3-(dimethylamino)-3-(2-fluorophenyl)propan-1-one dihydrochloride] it is more than 100 µM.
The figure for `Nc1n[nH]c(N2CCC(CNC(=O)c3cc(Cl)cc(Cl)c3)CC2)n1` [Example 243, N-((1-(3-amino-1H-1,2,4-triazol-5-yl)piperidin-4-yl)methyl)-3,5-dichlorobenzamide] is more than 100 µM.
The figure for `CC1CN(c2nc(N)n[nH]2)CCC1NS(=O)(=O)Cc1ccc(Br)cc1` (centres unmarked) [Example 244, N-(1-(3-amino-1H-1,2,4-triazol-5-yl)-3-methylpiperidin-4-yl)-1-(4-bromophenyl)methanesulfonamide] is 1 to 10 µM; for `CN(CCc1ccc(Cl)cc1)C1(CCCO)CCN(c2nc(N)n[nH]2)CC1` [Example 245, 3-(1-(3-amino-1H-1,2,4-triazol-5-yl)-4-((4-chlorophenethyl)(methyl)amino)piperidin-4-yl)propan-1-ol] it is 1 to 10 µM.
On to `CN(CCc1ccc(Br)cc1)C1CCN(c2nc(N)n[nH]2)CC1CCCO` (centres unmarked) [Example 246, 3-(1-(3-amino-1H-1,2,4-triazol-5-yl)-4-((4-bromophenethyl)(methyl)amino)piperidin-3-yl)propan-1-ol], for which the half-inhibitory concentration (IC50) was less than 0.1 µM.
The figure for `CCCC1(NCCc2ccc(Br)cc2)CCN(c2nc(N)n[nH]2)CC1` [Example 247, 1-(3-amino-1H-1,2,4-triazol-5-yl)-N-(4-bromophenethyl)1-4-propyl piperidin-4-amine, dihydrochloride] is 1 to 10 µM; for `CN(C1CCN(c2nc(N)n[nH]2)CC1)S(=O)(=O)Cc1cccc(Cl)c1` [Example 248, N-(1-(3-amino-1H-1,2,4-triazol-5-yl)piperidin-4-yl)-2-(3-chlorophenyl)-N-methylmethanesulfonamide hydrochloride] it is more than 100 µM; for `CN(CCc1ccc(Cl)cc1)C1CCN(c2nc(N)n[nH]2)CC1F` (centres unmarked) [Example 249, 1-(3-amino-1H-1,2,4-triazol-5-yl)-N-(4-chlorophenethyl)-3-fluoro-N-methylpiperidin-4-amine] it is 1 to 10 µM.
`CN(C1CCN(c2nc(N)n[nH]2)CC1)C1CCc2ccccc2C1` (centres unmarked) [Example 250, 1-(3-amino-1H-1,2,4-triazol-5-yl)-N-methyl-N-(1,2,3,4-tetrahydronaphthalen-2-yl)piperidin-4-amine dihydrochloride]: the IC50 was more than 100 µM.
The same measure for `Nc1n[nH]c(N2CCC(NCCc3ccc(Cl)cc3)C(CCCO)C2)n1` (centres unmarked) [Example 251, 3-(1-(3-amino-1H-1,2,4-triazol-5-yl)-4-((4-chlorophenethyl)amino)piperidin-3-yl)propan-1-ol dihydrochloride]: less than 0.1 µM; for `Nc1n[nH]c(N2CCC(CNCc3ccc(Cl)c(Cl)c3)CC2)n1` [Example 252, 5-(4-(((3,4-dichlorobenzyl)amino)methyl)piperidin-1-yl)-1H-1,2,4-triazol-3-amine dihydrochloride]: more than 100 µM; for `Nc1n[nH]c(N2CCC3C(CCCN3CCc3ccc(Br)cc3)C2)n1` (centres unmarked) [Example 253, 5-(1-(4-bromophenethyl)octahydro-1,6-naphthyridin-6(2H)-yl)-1H-1,2,4-triazol-3-amine dihydrochloride]: less than 0.1 µM.
With `Nc1n[nH]c(N2CCC(CNCc3ccc(Br)cc3)CC2)n1` [Example 254, 5-(4-(((4-bromobenzyl)amino)methyl)piperidin-1-yl)-1H-1,2,4-triazol-3-amine], the IC50 is more than 100 µM.
The figure for `Nc1n[nH]c(N2CCC(C(=O)NCc3cc(C(F)(F)F)cc(C(F)(F)F)c3)CC2)n1` [Example 255, 1-(3-amino-1H-1,2,4-triazol-5-yl)-N-(3,5-bis(trifluoromethyl)benzyl)piperidine-4-carboxamide] is more than 100 µM.
The same measure for `Nc1n[nH]c(N2CCC(CCCCO)(NS(=O)(=O)Cc3ccc(Br)cc3)CC2)n1` [Example 256, N-(1-(3-amino-1H-1,2,4-triazol-5-yl)-4-(4-hydroxybutyl)piperidin-4-yl)-1-(4-bromophenyl)methanesulfonamide]: 1 to 10 µM.
The same measure for `Nc1n[nH]c(N2CCN(C(CCc3ccc(Br)cc3)Cc3ccccc3)CC2)n1` (centres unmarked) [Example 257, 5-(4-(4-(4-bromophenyl)-1-phenylbutan-2-yl)piperazin-1-yl)-1H-1,2,4-triazol-3-amine trifluoroacetate]: 0.1 to 1 µM; for `CC(C)(Oc1ccc(Cl)cc1)C(=O)N1CCN(c2nc(N)n[nH]2)CC1` [Example 258, 1-(4-(3-amino-1H-1,2,4-triazol-5-yl)piperazin-1-yl)-2-(4-chlorophenoxy)-2-methylpropan-1-one]: more than 100 µM.

For the origin of these results see patent publication US10214531B2 (Institute for Drug Discovery, LLC, priority 2013, dated 2019).
